Source: patent US6403602B1 (priority 1997, dated 2002)
Structures can show the parent of a compound that is named as a salt. Where two headings read alike, the source gives them in different places.

Tests used:
mu opioid receptors = mu opioid receptors (Cavia porcellus, UniProt A0ACM8Q262); assay type: binding, guinea pig; conditions: read-out: Ki μ [^3H]DAMGO
κ2 sites = assay type: binding, guinea pig
kappa3 receptors = assay type: binding, guinea pig; conditions: read-out: Ki κ3 [^3H]NalBzoH
delta receptors [1] = biological target: T1, delta receptors (Cavia porcellus, UniProt A0A286XTF2); assay: biochemical; assay type: binding, guinea pig
T1 construct: The brains were then homogenized in 50 mM Tris HCl, buffer pH 7.7, using a Polytron; from tissue; host or cells: guinea pig brain homogenate (membrane pellet)

[2] = system: electrically stimulated guinea pig ileum; assay: tissue or blood; assay type: cell-based
mu receptors = assay type: cell-based, guinea pig
[3] = system: electrically stimulated mouse vas deferens; assay: tissue or blood; assay type: cell-based
delta receptors [4] = biological target: T2, delta receptors (Mus musculus, UniProt P32300); assay type: cell-based
T2 construct: The vas deferens from Swiss-Webster mice (30-35 g) were prepared as described by Hughes et al; from tissue; host or cells: mouse vas deferens (Swiss-Webster)

kappa receptors = biological target: T3, kappa receptors (Cavia porcellus, UniProt P41144); assay type: cell-based, guinea pig
T3 construct: The longitudinal muscle with the myenteric plexus attached was gently separated from the underlying circular muscle; from tissue; host or cells: guinea pig ileum longitudinal muscle with myenteric plexus

[5] = read-out: Guinea Pig Ileum IC50
[6] = read-out: IC50 (nM), Guinea Pigs Ileum
[7] = read-out: IC50 (nM), Mouse Vas Deferens
[8] = read-out: Mouse Vas Deferens IC50
[9] = Cavia porcellus, read-out: Guinea Pig Ileum IC50 (nM)
[10] = Mus musculus, read-out: Mouse Vas Deferens IC50 (nM)

Chain of mu opioid receptors (A0ACM8Q262 1-400): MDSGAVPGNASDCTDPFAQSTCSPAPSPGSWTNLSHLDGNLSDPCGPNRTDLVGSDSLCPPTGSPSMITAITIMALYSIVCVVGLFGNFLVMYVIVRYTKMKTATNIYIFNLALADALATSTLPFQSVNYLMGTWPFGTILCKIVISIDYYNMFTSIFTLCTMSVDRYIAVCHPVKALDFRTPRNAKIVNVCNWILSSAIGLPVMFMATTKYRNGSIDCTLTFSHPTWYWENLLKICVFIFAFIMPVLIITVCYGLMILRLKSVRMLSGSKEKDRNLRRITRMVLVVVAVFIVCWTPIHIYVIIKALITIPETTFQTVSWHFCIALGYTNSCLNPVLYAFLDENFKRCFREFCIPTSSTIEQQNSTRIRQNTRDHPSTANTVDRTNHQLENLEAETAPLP
T2 sequence (P32300 whole entry): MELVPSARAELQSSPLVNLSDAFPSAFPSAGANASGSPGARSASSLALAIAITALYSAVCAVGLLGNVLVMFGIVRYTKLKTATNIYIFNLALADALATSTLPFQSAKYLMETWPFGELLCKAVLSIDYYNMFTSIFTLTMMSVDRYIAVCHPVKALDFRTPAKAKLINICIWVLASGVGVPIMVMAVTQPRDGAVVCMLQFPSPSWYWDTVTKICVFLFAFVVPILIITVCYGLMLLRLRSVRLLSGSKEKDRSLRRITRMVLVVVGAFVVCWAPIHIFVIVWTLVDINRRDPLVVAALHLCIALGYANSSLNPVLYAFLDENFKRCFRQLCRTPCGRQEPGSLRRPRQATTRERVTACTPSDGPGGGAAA
T1 sequence (A0A286XTF2 1-366): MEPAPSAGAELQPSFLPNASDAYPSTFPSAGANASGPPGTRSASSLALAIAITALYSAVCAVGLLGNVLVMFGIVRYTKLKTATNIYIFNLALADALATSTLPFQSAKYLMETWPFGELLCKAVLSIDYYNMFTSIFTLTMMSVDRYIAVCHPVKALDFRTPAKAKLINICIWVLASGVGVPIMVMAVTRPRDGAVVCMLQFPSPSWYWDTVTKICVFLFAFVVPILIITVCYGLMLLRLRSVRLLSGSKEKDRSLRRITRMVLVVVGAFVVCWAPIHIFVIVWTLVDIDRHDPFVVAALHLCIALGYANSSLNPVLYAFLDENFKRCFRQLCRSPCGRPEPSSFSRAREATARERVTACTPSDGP
T3 sequence (P41144 whole entry): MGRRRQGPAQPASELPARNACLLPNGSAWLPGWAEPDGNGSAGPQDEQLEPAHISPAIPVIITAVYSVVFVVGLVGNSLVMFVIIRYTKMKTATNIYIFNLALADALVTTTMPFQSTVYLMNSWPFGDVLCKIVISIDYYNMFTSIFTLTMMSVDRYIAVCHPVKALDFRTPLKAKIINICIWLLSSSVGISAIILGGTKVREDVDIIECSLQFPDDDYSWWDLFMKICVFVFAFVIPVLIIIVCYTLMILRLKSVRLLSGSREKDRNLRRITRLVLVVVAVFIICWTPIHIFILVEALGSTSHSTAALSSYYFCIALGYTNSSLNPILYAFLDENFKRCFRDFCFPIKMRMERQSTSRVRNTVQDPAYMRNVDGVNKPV

| Compound | IC50 (κ2 sites) | Ki (kappa3 receptors) | IC50 [2, 5] | Guinea Pig Ileum DR with CTAP (mu receptors) | Guinea Pig Ileum Ke of CTAP (mu receptors) | Mouse Vas Deferens DR with Naltrindole (delta receptors [4]) | further results |
| --- | --- | --- | --- | --- | --- | --- | --- |
| COC(=O)/C=C/C(=O)N[C@@H]1CC[C@@]2(O)[C@H]3Cc4ccc(O)c5c4[C@@]2(CCN3CC2CC2)[C@H]1O5 [β-FNA-HCl] | 66.5 nM | 0.8 nM |  |  |  |  | Ki (mu opioid receptors): 0.4 nM |
| 3-O-benzoyl-7,8-dihydromorphine-6-O-sulfate [NIDA # 20,275] | > 10000 nM |  | 649 ± 131 nM | 4.03 ± 1.51 | 37.64 ± 18.74 |  | Ki (mu opioid receptors): 61.8 nM; Ki (delta receptors [1]; read-out: Ki δ [^3H]Cl-DPDPE): 1600 nM |
| Dynorphin A (1-17) |  |  |  |  |  |  | IC50 [2, 6]: 0.95 nM; DR with CTAP (mu receptors): 1.52; Ke of CTAP (mu receptors): 209.89; IC50 [3, 7]: 29.3 nM |
| Met-Enkephalin | > 10000 nM | 277 nM | 27.4 nM | 5.08± | 24.50 | 13.63 | IC50 [3, 8]: 1.52 nM; Mouse Vas Deferens Ke of Naltrindole (delta receptors [4]): 0.082 |
| CCC12CCN(CC3(O)CC3)C(Cc3ccc(O)cc31)C2(C)C (single isomer, unassigned; (-)) [(−)Bremazocine] | 2.2 nM | 0.1 nM |  |  |  |  | Ki (mu opioid receptors): 0.1 nM; Ki (delta receptors [1]; read-out: Ki δ [^3H]Cl-DPDPE): 0.3 nM; IC50 [2, 6]: 0.067 nM; DR with CTAP (mu receptors): 0.83 |
| CN1CC[C@]23c4c5ccc(OS(=O)(=O)O)c4O[C@H]2[C@@H](O)C=C[C@H]3[C@H]1C5 [NIDA # 20,268, morphine-3-O-sulfate] | > 10000 nM | 1690 nM |  |  |  |  | Ki (delta receptors [1]): > 10000 nM |
| Dynorphin B-OH | 70 nM | 14.2 nM |  |  |  |  |  |
| Dynorphin(1-9)-OH | 324 nM | 20.2 nM | 4.69 nM | 1.13 | 357.14 | 5.71 | IC50 [3, 8]: 12.2 nM; Mouse Vas Deferens Ke of Naltrindole (delta receptors [4]): 0.281 |
| (−) Cyclazocine | 17.3 nM | 0.2 nM | 1.05 nM | 1.00 ± 0.00 |  |  | Ki (mu opioid receptors): 0.1 nM |
| Dynorphin B |  |  |  |  |  |  | IC50 [2, 6]: 4.4 nM; DR with CTAP (mu receptors): 1.08; Ke of CTAP (mu receptors): 344.83; IC50 [3, 7]: 39.1 nM |
| C[C@@H](NC(=O)[C@@H](N)Cc1ccc(O)cc1)C(=O)NCC(=O)N(C)[C@@H](Cc1ccccc1)C(=O)NCCO [DAMGO, [D-Ala^2,N-Me-Phe^4,Gly-ol^5]-enkephalin] |  |  | 8.25 nM | 4.98 | 25.31 | 0.93 | Guinea Pig Ileum Ratio (CTAP) (mu receptors): 1.000; Guinea Pig Ileum DR with Nor-BNI (kappa receptors): 1.74; Guinea Pig Ileum Ke of Nor-BNI (kappa receptors): 27.67; Guinea Pig Ileum Ratio (Nor-BNI) (kappa receptors): 0.002; IC50 [3, 8]: 178 nM |
| [D-Pen^3.5-enkephalin] [DPDPE-OH] | > 10000 nM | > 1000 nM | 4130 nM | 5.64 | 25.83 | 53.11 | Guinea Pig Ileum Ratio (CTAP) (mu receptors): 0.980; Guinea Pig Ileum DR with Nor-BNI (kappa receptors): 1.54; Guinea Pig Ileum Ke of Nor-BNI (kappa receptors): 50.68; Guinea Pig Ileum Ratio (Nor-BNI) (kappa receptors): 0.001; Mouse Vas Deferens Ke of Naltrindole (delta receptors [4]): 0.021; Mouse Vas Deferens Ratio (Naltrindole) (delta receptors [4]): 1.000 |
| COc1ccc2c3c1O[C@H]1C(=O)CC[C@@]4(O)[C@@H](C2)N(C)CC[C@]314 [Oxycodone] |  |  |  | 2.30 | 78.66 | 0.79 | IC50 [2, 9]: 324 nM; Guinea Pig Ileum Ratio (CTAP) (mu receptors): 0.322; Guinea Pig Ileum DR with Nor-BNI (kappa receptors): 1.45; Guinea Pig Ileum Ke of Nor-BNI (kappa receptors): 45.84; Guinea Pig Ileum Ratio (Nor-BNI) (kappa receptors): 0.001; IC50 [3, 10]: 6330 nM |
| CN1CC[C@]23c4c5ccc(O)c4O[C@H]2[C@@H](O)CC[C@H]3[C@H]1C5 [Dihydromorphine, 7,8-Dihydromorphine] |  |  |  | 12.46 | 17.46 |  | IC50 [2, 9]: 42.4 nM; IC50 [3, 10]: 8.11 nM |
